Reference: patent US8772274B1, “Anti-cancer compositions and methods” (The Penn State Research Foundation, priority 2008, dated 2014)
Counter-ions that a name gives are not always drawn. Like-named read-outs stand apart in the source and are kept apart here.

Tests used:
[1] = system: colon adenocarcinoma cells (Caco-2, HT 29, HCT 116, SW 480); experiment: MTS viability, four colon cancer cell lines (summary); format: cell-based; settings: Caco-2, HT 29, HCT 116, SW 480; 24-72 hours; read-out: IC50 range, four colon cancer cell lines
Procedure: (§1) The IC50 value is evaluated by treating with increasing concentrations of PBIT, PEIT, PEISe (10-100 μM) or PBISe (1.6-50 μM) for 24-72 hours and the number of viable cell are quantified using MTS (Promega, Wis.).

[2] = system: OVCAR-3 ovarian carcinoma cells; experiment: MTS cell viability assay, OVCAR-3; format: cell-based, human; settings: OVCAR-3 ovarian carcinoma; 24 h; MTS; read-out: Inhibition Cancer Cells IC50, OVCAR-3 (Table III)
Procedure: (§2) Growth inhibitory effects on cultured cells from human vertical growth phase (VGP) melanoma cell line WM115, Lung adenocarcinoma (A549), fibrosarcoma (HT-1080), prostate adenocarcinoma (PC-3), ovarian carcinoma (OVCAR-3), and breast adenocarcinoma (MDA-MB-231) are plated in 96 well plates at a density of 5×10^3 cells/well in 100 μl media. […] Dose response curves for each compound are generated and the IC50 values (μM) determined using GraphPad Prism software. Each experiment is replicated at least 3 times and the average IC50 (μM) values with standard error represented.

[3] = system: MDA-MB-231 breast adenocarcinoma cells; experiment: MTS cell viability assay, MDA-MB-231; format: cell-based, human; settings: MDA-MB-231 breast adenocarcinoma; 24 h; MTS; read-out: Inhibition Cancer Cells IC50, MDA-MB-231 (Table III)
Procedure: as §2

[4] = Toxicity of topical application in vivo
Procedure: Blood collected from the control and experimental animals, at the end of treatment (day 29), are analyzed for SGOT, SGPT (representing liver and cardiac toxicity) and alkaline phosphatase (for kidney and cardiac toxicity). Additionally, concentrations of metabolites (glucose, creatinine, urea nitrogen and total protein) in serum are also determined.

[5] = system: HT-1080 fibrosarcoma cells; experiment: MTS cell viability assay, HT-1080; format: cell-based, human; settings: HT-1080 fibrosarcoma; 24 h; MTS; read-out: Inhibition Cancer Cells IC50, HT-1080 (Table III)
Procedure: as §2

[6] = system: PC-3 prostate adenocarcinoma cells; experiment: MTS cell viability assay, PC-3; format: cell-based, human; settings: PC-3 prostate adenocarcinoma; 24 h; MTS; read-out: Inhibition Cancer Cells IC50, PC-3 (Table III)
Procedure: as §2

[7] = system: HT-29 colorectal adenocarcinoma cells; experiment: MTS cell viability assay, HT-29; format: cell-based
[8] = system: normal human fibroblast cells (FF2441); experiment: MTS cell viability assay, normal fibroblasts; format: cell-based; settings: FF2441; 24-72 hours; MTS; read-out: Inhibition of growth IC50, Fibroblast cells (FF2441) (Table II)
Procedure: (§3) 5×10^3 cells per well in 100 μl DMEM-10% FBS are grown in a 96-well plate for 36 or 72 hours, respectively for melanoma (UACC 903, 1205 Lu and WM115) and human fibroblast (FF2441) cell lines and treated with either PBS vehicle or increasing concentrations (3.5-21 μM) of PBIT, PBISe, PEIT or PEISe for 24 hours. Cellular viability compared to control treated cells is measured using the MTS assay (Promega, Madison, Wis.). IC50 (μM) values for each compound in respective cell lines is determined from three independent experiments using GraphPad Prism version 4.01 (GraphPad, San Diego, Calif.), bars, SEM.
Viability of colon adenocarcinoma cells (Caco-2, HT 29, HCT 116, SW 480) and normal fibroblast cells (FF2441) treated with PBIT (1), PBISe (2), PEIT (3) or PEISe (4) is compared. The IC50 value is evaluated by treating with increasing concentrations of PBIT, PEIT, PEISe (10-100 μM) or PBISe (1.6-50 μM) for 24-72 hours and the number of viable cell are quantified using MTS (Promega, Wis.).

[9] = system: PI3 kinase/Akt3 and MAP kinase signaling in UACC 903 cells; experiment: Western blot analysis of melanoma cell lysates; format: cell-based; settings: melanoma cells
Procedure: Melanoma cell line UACC 903 cells (1×10^6) are treated with increasing concentrations (7-21 μM) of PBIT and PBISe for 24 hours and cell lysates examined by Western blot analysis Cell lysates are harvested by addition of lysis buffer containing 50 mM HEPES (pH 7.5), 150 mM NaCl, 10 mM EDTA, 10% glycerol, 1% Triton X-100, 1 mM sodium orthovanadate, 0.1 mM sodium molybdate, 1 mM phenylmethylsulfonyl fluoride, 20 μg/ml aprotinin, and 5 μg/ml leupeptin. Whole cell lysates are centrifuged (≧10,000×g) for 10 minutes at 4° C. to remove cell debris. Protein concentrations are quantitated using the BCA assay (Pierce, Rockford, Ill.), and 30 μg of lysate loaded per lane onto NuPAGE Gels (Life Technologies, Carlsbad, Calif.). Following electrophoresis, samples are transferred to polyvinylidene difluoride membrane (Pall Corporation, Pensacola, Fla.). Blots are probed with antibodies to PRAS40 and phosphorylated PRAS40 (Thr246) (Invitrogen, Carlsbad, Calif.); antibodies to iNOS, cyclin D1, p27, p21, Erk2, α-enolase and secondary antibodies conjugated with horseradish peroxidase from Santa Cruz Biotechnology (Santa Cruz, Calif.); and antibodies to Akt3, phosphorylated-Akt (Ser473), phosphorylated-Erk 1/2 (Thr202/Tyr204), caspase-3 and cleaved PARP from Cell Signaling Technology (Danvers, Mass.). Immunoblots are developed using ECL (Pierce, Rockford, Ill.).

[10] = system: A549 lung adenocarcinoma cells; experiment: MTS cell viability assay, A549; format: cell-based, human; settings: A549 lung carcinoma; 24 h; MTS; read-out: Inhibition Cancer Cells IC50, A549 (Table III)
Procedure: as §2

[11] = system: UACC 903 melanoma cell line; experiment: MTS cell viability assay, UACC 903; format: cell-based; settings: read-out: IC50, UACC 903 (Table I)
Procedure: (§4) Cellular viability compared to control treated cells is measured using the MTS assay (Promega, Madison, Wis.).

[12] = system: 1205Lu melanoma cell line; experiment: MTS cell viability assay, 1205Lu; format: cell-based; settings: read-out: IC50, 1205Lu (Table I)
Procedure: as §4

[13] = system: iNOS (total nitrate+nitrite in Caco-2 cells); experiment: Nitrite estimation (nitrate/nitrite colorimetric assay); format: cell-based; settings: 80 μM, 72 hours
Procedure: Nitrite content in cell culture media is determined using a nitrate/nitrite colorimetric assay kit (Cayman Chemical Company, Ann Arbor, Mich.) essentially as described in Salvucci, O. et al., Cancer Res 2001; 61:318-26. Caco-2 cells (1×10^6) are plated in 60 mm culture dishes in advanced DMEM containing 10% heat treated FBS for 12 hours, growing cells conditioned with phenol-red free DMEM containing 0.5% FBS for an additional 12 hours. Cells are then treated with increasing concentrations of PBIT (40 and 80 μM) or PBISe (2 and 4 μM) dissolved in phenol-red free DMEM (2 ml) containing 0.5% FBS for 72 hours. Culture supernatants are collected and total nitrite (nitrate+nitrite) measured by incubating 80 μL supernatant with enzyme cofactor mixture (10 μL) and nitrate reductase (10 μL) for 2 hours. Total nitrite is measured by the addition of Griess reagent-I and II (50 μL each). A nitrate standard curve (5-35 μM) is simultaneously prepared. Total nitrite present in media alone is subtracted from all experimental values and represented as micromolar nitrite produced following each treatment.

[14] = system: Caco-2 colon adenocarcinoma cells; experiment: MTS cell viability assay, Caco-2; settings: MTS
Procedure: In vitro inhibitory efficacy is measured using 3-(4,5-dimethylthiazol-2-yl)-5-(3-carboxymethoxyphenyl)-2-(4-sulfophenyl)-2H-tetrazolium (MTS) assay (Promega, Madison, Wis.). […] Cells are treated with either vehicle control, PBS, PBIT (40-120 μM) or PBISe (2.4-10 μM) for 72 h. The percentages of viable cells compared to control PBS treated cells are determined using MTS assay and IC50 values calculated using GraphPad Prism version 4.01 (GraphPad software, San Diego, Calif.). An IC50 value for each compound is determined by at least three independent experiments and represented with a standard error.
as §1

[15] = system: WM115 melanoma cell line; experiment: MTS cell viability assay, WM115
Procedure: as §3
Growth inhibitory effects on cultured cells from human vertical growth phase (VGP) melanoma cell line WM115, Lung adenocarcinoma (A549), fibrosarcoma (HT-1080), prostate adenocarcinoma (PC-3), ovarian carcinoma (OVCAR-3), and breast adenocarcinoma (MDA-MB-231) are plated in 96 well plates at a density of 5×10^3 cells/well in 100 μl media. The cells are treated 36 hours later with PBISe (0.19-100 μM), PBIT (10-100 μM), PEIT 10-100 μM), or PEISe (10-100 μM) for 24 h and cell viability measured using MTS assay. Dose response curves for each compound are generated and the IC50 values (μM) determined using GraphPad Prism software. Each experiment is replicated at least 3 times and the average IC50 (μM) values with standard error represented.

[16] = system: HCT-116 colorectal adenocarcinoma cells; experiment: MTS cell viability assay, HCT-116; format: cell-based
[17] = system: A549, Caco-2, HT-1080, PC-3, OVCAR-3, MDA-MB-231, WM115; experiment: MTS viability, all cancer cell lines tested (summary); format: cell-based, human; settings: Table III; read-out: concentration decreasing cell viability by 50% (IC50), cancer cell lines of Table III
Procedure: as §2

[18] = system: SW-480 colorectal adenocarcinoma cells; experiment: MTS cell viability assay, SW-480; format: cell-based; settings: Homo sapiens, SW480, read-out: Inhibition of growth IC50, last Colorectal adenocarcinoma row (Table II)
[19] = read-out: Inhibition of growth IC50, Caco-2 (Table II), Caco-2, 24-72 hours

For N=C(N)[Se]CCc1ccccc1 (as salt: hydrobromid) [PEISe, s-2-phenylethylisoselenourea hydrobromide], the melting point was 140 to 142 °C.

Br.Br.N=C(N)SCCc1ccc(CCSC(=N)N)cc1 [PBIT, s,s′-1,4-phenylene-bis(1,2-ethanediyl)bis-isothiourea dihydrobromide, reference compound] gave an IC50 [1] of 59 to 100 µM, an IC50 [2] of over 100 µM and an IC50 [3] of over 100 µM. For the same molecule, the “serum enzyme and metabolite levels, topical application” value ([4]; day 29, SGOT, SGPT, alkaline phosphatase, glucose, creatinine, urea nitrogen, total protein) was “no significant differences”, the “body weight, topical application” value ([4]; topical every day, 29 days) was “no detectable differences” and the IC50 [5] was over 100 µM. It also gave an IC50 [6] of over 100 µM, an IC50 ([7]; HT-29, 24-72 hours, MTS, read-out: Inhibition of growth IC50, HT-29 (Table II)) of over 100 µM and an IC50 [8] of over 100 µM. For the same molecule, the iNOS expression ([9]; FIG. 4B) was “elevates”, the “cyclin D1 levels” value ([9]; FIG. 4C) was “does not alter” and the IC50 [10] was over 100 µM. For the same molecule, the IC50 ([11]; UACC 903 melanoma, 24 hours treatment, MTS) was over 100 µM, the IC50 ([12]; 1205Lu melanoma, 24 hours treatment, MTS) was over 100 µM and the “total nitrate+nitrite levels compared to control PBS treated cells” value [13] was “significantly reduces”. It also gave an IC50 ([14]; read-out: Inhibition Cancer Cells IC50, Caco-2 (Table III), Caco-2 colorectal adenocarcinoma) of 59.4 ± 3.8 µM, an IC50 [14, 19] of 59.4 ± 3.83 µM and an IC50 ([15]; read-out: IC50, WM115 (Table I), WM115 melanoma, 24 hours treatment, MTS) of over 100 µM. The IC50 ([15]; read-out: Inhibition Cancer Cells IC50, WM115 (Table III), WM115 melanoma, 24 h, MTS) was over 100 µM, the IC50 ([16]; HCT-116, 24-72 hours, MTS, read-out: Inhibition of growth IC50, HCT-116 (Table II)) was over 100 µM and the IC50 [17] was over 100 µM.

Molecule N=C(N)[Se]CCc1ccccc1 [PEISe, s-2-phenylethylisoselenourea hydrobromide] has an IC50 [18] of over 100 µM, an IC50 ([7]; Homo sapiens, HT-29, read-out: Inhibition of growth IC50, HT-29 (Table II)) of 21.9 ± 2.1 µM and an IC50 ([11]; Homo sapiens, UACC-903, 24 h) of over 100 µM. The IC50 ([12]; Homo sapiens, 1205Lu, 24 h) was over 100 µM, the IC50 [14, 19] was 16 ± 2 µM and the IC50 ([15]; Homo sapiens, WM-115, 24 h, read-out: IC50, WM115 (Table I)) was about 80 µM. The IC50 ([16]; Homo sapiens, HCT-116, read-out: Inhibition of growth IC50, HCT-116 (Table II)) was over 100 µM.
